For assay [1], the system named is Platelet. Put plainly: Antiaggregating activity in Homo sapiens (human) platelet rich plasma assessed as inhibition of arachidonic acid-induced platelet aggregation at 0.5 uM incubated for 4 min prior to arachidonic acid-induction measured for 5.5 min by turbidometric analysis. The format is functional.
Assay [2] deals with Platelet. In words: Antiaggregating activity in Homo sapiens (human) platelet rich plasma assessed as inhibition of arachidonic acid-induced platelet aggregation at 1 uM incubated for 4 min prior to arachidonic acid-induction measured for 5.5 min by turbidometric analysis. It counts as functional, cell-free.
In assay [3] the test system is Platelet. Put plainly: Antiaggregating activity in Homo sapiens (human) platelet rich plasma assessed as inhibition of adrenaline-induced platelet aggregation at 0.5 uM incubated for 4 min prior to adrenaline-induction measured for 5.5 min by turbidometric analysis. It counts as functional, cell-free.
Assay [4] has as its system Platelet. Put plainly: Antiaggregating activity in Homo sapiens (human) platelet rich plasma assessed as inhibition of adrenaline-induced platelet aggregation at 1 uM incubated for 4 min prior to adrenaline-induction measured for 5.5 min by turbidometric analysis. The format is functional, cell-free.
The test system of assay [5] is Platelet. Put plainly: Antiaggregating activity in Homo sapiens (human) platelet rich plasma assessed as inhibition of adrenaline-induced platelet aggregation at 0.03 uM incubated for 4 min prior to adrenaline-induction measured for 5.5 min by turbidometric analysis. It counts as functional, cell-free.
Assay [6] relates to Platelet. In words: Antiaggregating activity in Homo sapiens (human) platelet rich plasma assessed as inhibition of adrenaline-induced platelet aggregation at 0.06 uM incubated for 4 min prior to adrenaline-induction measured for 5.5 min by turbidometric analysis. The format is functional, cell-free.
In assay [7] the test system is Platelet. Put plainly: Antiaggregating activity in Homo sapiens (human) platelet rich plasma assessed as inhibition of adrenaline-induced platelet aggregation at 0.125 uM incubated for 4 min prior to adrenaline-induction measured for 5.5 min by turbidometric analysis. The format is functional, cell-free.
For assay [8], the system named is Platelet. In words: Antiaggregating activity in Homo sapiens (human) platelet rich plasma assessed as inhibition of collagen-induced platelet aggregation at 0.06 uM incubated for 4 min prior to collagen-induction measured for 5.5 min by turbidometric analysis. The format is functional, cell-free.
Assay [9] is described as follows: Antiaggregating activity in Homo sapiens (human) platelet rich plasma assessed as ADP-induced platelet aggregation at 0.03 uM incubated for 4 min prior to ADP-induction measured for 5.5 min by turbidometric analysis (reference value: 54 to 88%). It counts as functional.
Assay [10] is described as follows: Antiaggregating activity in Homo sapiens (human) platelet rich plasma assessed as disaggregation of ADP-induced platelet aggregation at 0.06 uM incubated for 4 min prior to ADP-induction measured for 5.5 min by turbidometric analysis relative to control. It counts as functional.
In assay [11] the test system is Platelet. In words: Antiaggregating activity in Homo sapiens (human) platelet rich plasma assessed as inhibition of ADP-induced platelet aggregation at 0.125 uM incubated for 4 min prior to ADP-induction measured for 5.5 min by turbidometric analysis. It counts as functional, cell-free.
Assay [12] can be described thus: Antiaggregating activity in Homo sapiens (human) platelet rich plasma assessed as ristocetin-induced platelet aggregation at 1 uM incubated for 4 min prior to ristocetin-induction measured for 5.5 min by turbidometric analysis (reference value: 65 to 99%). The format is functional.
Assay [13] in a line: Antiaggregating activity in Homo sapiens (human) platelet rich plasma assessed as ristocetin-induced platelet aggregation at 0.5 uM incubated for 4 min prior to ristocetin-induction measured for 5.5 min by turbidometric analysis (reference value: 65 to 99%). It counts as functional.
For assay [14], the system named is Platelet. Put plainly: Antiaggregating activity in Homo sapiens (human) platelet rich plasma assessed as inhibition of ADP-induced platelet aggregation at 0.5 uM incubated for 4 min prior to ADP-induction measured for 5.5 min by turbidometric analysis. It counts as functional, cell-free.
Assay [15] relates to Platelet. In words: Antiaggregating activity in Homo sapiens (human) platelet rich plasma assessed as inhibition of ADP-induced platelet aggregation at 1 uM incubated for 4 min prior to ADP-induction measured for 5.5 min by turbidometric analysis. It counts as functional, cell-free.
Assay [16] concerns Platelet. Put plainly: Antiaggregating activity in Homo sapiens (human) platelet rich plasma assessed as inhibition of collagen-induced platelet aggregation at 0.125 uM incubated for 4 min prior to collagen-induction measured for 5.5 min by turbidometric analysis. The format is functional, cell-free.
The test system of assay [17] is Platelet. In words: Antiaggregating activity in Homo sapiens (human) platelet rich plasma assessed as inhibition of collagen-induced platelet aggregation at 0.5 uM incubated for 4 min prior to collagen-induction measured for 5.5 min by turbidometric analysis. It counts as functional, cell-free.
Assay [18] concerns Platelet. In words: Antiaggregating activity in Homo sapiens (human) platelet rich plasma assessed as inhibition of collagen-induced platelet aggregation at 1 uM incubated for 4 min prior to collagen-induction measured for 5.5 min by turbidometric analysis. It counts as functional, cell-free.
Assay [19] can be described thus: Antiaggregating activity in Homo sapiens (human) platelet rich plasma assessed as collagen-induced platelet aggregation at 0.03 uM incubated for 4 min prior to collagen-induction measured for 5.5 min by turbidometric analysis (reference value: 50 to 98%). It counts as functional.
The nature of assay [20]: Antiaggregating activity in Homo sapiens (human) platelet rich plasma assessed as ristocetin-induced platelet aggregation at 0.03 uM incubated for 4 min prior to ristocetin-induction measured for 5.5 min by turbidometric analysis (reference value: 65 to 99%). The format is functional.
Assay [21] is described as follows: Antiaggregating activity in Homo sapiens (human) platelet rich plasma assessed as ristocetin-induced platelet aggregation at 0.06 uM incubated for 4 min prior to ristocetin-induction measured for 5.5 min by turbidometric analysis (reference value: 65 to 99%). The format is functional.
A short description of assay [22]: Antiaggregating activity in Homo sapiens (human) platelet rich plasma assessed as ristocetin-induced platelet aggregation at 0.125 uM incubated for 4 min prior to ristocetin-induction measured for 5.5 min by turbidometric analysis (reference value: 65 to 99%). It counts as functional.
Assay [23] in a line: Antiaggregating activity in Homo sapiens (human) platelet rich plasma assessed as arachidonic acid-induced platelet aggregation at 0.03 uM incubated for 4 min prior to arachidonic acid-induction measured for 5.5 min by turbidometric analysis (reference value: 55 to 100%). It counts as functional.
Assay [24] concerns Platelet. In words: Antiaggregating activity in Homo sapiens (human) platelet rich plasma assessed as inhibition of arachidonic acid-induced platelet aggregation at 0.06 uM incubated for 4 min prior to arachidonic acid-induction measured for 5.5 min by turbidometric analysis. It counts as functional, cell-free.
Assay [25] deals with Platelet. In words: Antiaggregating activity in Homo sapiens (human) platelet rich plasma assessed as inhibition of arachidonic acid-induced platelet aggregation at 0.125 uM incubated for 4 min prior to arachidonic acid-induction measured for 5.5 min by turbidometric analysis. The format is functional, cell-free.
In assay [26] the test system is Platelet. In words: Antiaggregating activity in Homo sapiens (human) platelet rich plasma assessed as inhibition of collagen-induced platelet aggregation at 0.03 uM incubated for 4 min prior to collagen-induction measured for 5.5 min by turbidometric analysis. The format is functional, cell-free.
The test system of assay [27] is Platelet. In words: Antiaggregating activity in Homo sapiens (human) platelet rich plasma assessed as inhibition of adrenaline-induced platelet aggregation at 0.25 uM incubated for 4 min prior to adrenaline-induction measured for 5.5 min by turbidometric analysis. It counts as functional, cell-free.
Assay [28] has as its system Platelet. In words: Antiaggregating activity in Homo sapiens (human) platelet rich plasma assessed as inhibition of ADP-induced platelet aggregation at 0.25 uM incubated for 4 min prior to ADP-induction measured for 5.5 min by turbidometric analysis. It counts as functional, cell-free.
Assay [29] has as its system Platelet. Put plainly: Antiaggregating activity in Homo sapiens (human) platelet rich plasma assessed as inhibition of collagen-induced platelet aggregation at 0.25 uM incubated for 4 min prior to collagen-induction measured for 5.5 min by turbidometric analysis. It counts as functional.
Assay [30] relates to Platelet. Put plainly: Antiaggregating activity in Homo sapiens (human) platelet rich plasma assessed as inhibition of ristocetin-induced platelet aggregation at 1 uM incubated for 4 min prior to ristocetin-induction measured for 5.5 min by turbidometric analysis. It counts as functional, cell-free.
A short description of assay [31]: Antiaggregating activity in Homo sapiens (human) platelet rich plasma assessed as ristocetin-induced platelet aggregation at 0.25 uM incubated for 4 min prior to ristocetin-induction measured for 5.5 min by turbidometric analysis (reference value: 65 to 99%). The format is functional.
Assay [32] has as its system Platelet. In words: Antiaggregating activity in Homo sapiens (human) platelet rich plasma assessed as inhibition of arachidonic acid-induced platelet aggregation at 0.25 uM incubated for 4 min prior to arachidonic acid-induction measured for 5.5 min by turbidometric analysis. It counts as functional, cell-free.
Assay [33] can be described thus: Antiaggregating activity in Homo sapiens (human) platelet rich plasma assessed as disaggregation of ADP-induced platelet aggregation at 0.25 uM incubated for 4 min prior to ADP-induction measured for 5.5 min by turbidometric analysis relative to control. The format is functional.
Assay [34] in a line: Antiaggregating activity in Homo sapiens (human) platelet rich plasma assessed as ADP-induced platelet aggregation at 0.1 uM incubated for 4 min prior to ADP-induction measured for 5.5 min by turbidometric analysis (reference value: 54 to 88%). It counts as functional.
Assay [35] relates to Platelet. Put plainly: Antiaggregating activity in Homo sapiens (human) platelet rich plasma assessed as inhibition of adrenaline-induced platelet aggregation at 0.1 uM incubated for 4 min prior to adrenaline-induction measured for 5.5 min by turbidometric analysis. It counts as functional, cell-free.
The subject of assay [36] is Platelet. In words: Antiaggregating activity in Homo sapiens (human) platelet rich plasma assessed as inhibition of collagen-induced platelet aggregation at 0.1 uM incubated for 4 min prior to collagen-induction measured for 5.5 min by turbidometric analysis. It counts as functional, cell-free.
Assay [37] can be described thus: Antiaggregating activity in Homo sapiens (human) platelet rich plasma assessed as disaggregation of ristocetin-induced platelet aggregation at 0.25 uM incubated for 4 min prior to ristocetin-induction measured for 5.5 min by turbidometric analysis relative to control. The format is functional.
Assay [38] in a line: Antiaggregating activity in Homo sapiens (human) platelet rich plasma assessed as ristocetin-induced platelet aggregation at 0.1 uM incubated for 4 min prior to ristocetin-induction measured for 5.5 min by turbidometric analysis (reference value: 65 to 99%). It counts as functional.
Assay [39] in a line: Antiaggregating activity in Homo sapiens (human) platelet rich plasma assessed as arachidonic acid-induced platelet aggregation at 0.1 uM incubated for 4 min prior to arachidonic acid-induction measured for 5.5 min by turbidometric analysis (reference value: 55 to 100%). It counts as functional.

Molecules are shown by their SMILES. Active and inactive are the calls of the source. No cut-off for these calls is given here.

As for `Br.O=C(C1CCCN(Cc2ccc(CN3CCCC(C(=O)N4CCN(c5ccccc5Cl)CC4)C3)cc2)C1)N1CCN(c2ccccc2Cl)CC1` (stereo not given), the inhibition result with Platelet [1], with Platelet [2], with Platelet [3], with Platelet [4], in the assay on Platelet [5] and with Platelet [6] was “Active” throughout. Further, the inhibition entry in the assay with Platelet [7], with Platelet [8], with Platelet [11], in the assay with Platelet [14], in the assay with Platelet [15] and with Platelet [16] was “Active” in each case. The inhibition entry in the assay on Platelet [17], in the assay with Platelet [18], in the assay on Platelet [24] and in the assay with Platelet [25] was “Active” each time. For the same compound, the Activity in assay [9] amounted to 84%; in [10] it was 27%; in assay [12], 30%; in [13] it was 35%; in assay [19], 76%; in assay [20], 78%. The Activity was found to be 61% in [21], 31% in [22] and 58% in [23].

Take `Br.O=C(C1CCCN(Cc2ccc(Br)cc2)C1)N1CCN(c2ccccc2Cl)CC1` (stereo not given): the inhibition result with Platelet [2], in the assay on Platelet [4], with Platelet [5], with Platelet [6], in the assay with Platelet [7] and in the assay with Platelet [26] was “Active” each time. Besides, the inhibition result in the assay with Platelet [8], in the assay with Platelet [11], in the assay on Platelet [15], in the assay on Platelet [16], with Platelet [18] and with Platelet [24] was “Active” throughout. Moreover, in the assay on Platelet [25], the inhibition result is “Active”. The Activity amounted to 55% in [9]; 20% in assay [10]; 39% in assay [12]; 67% in [20]; 62% in assay [21]; 53% in assay [22]. Besides, the Activity in assay [23] is listed as 56%.

Consider `COc1cc(C(=O)[n+]2cccc(C(=O)N3CCN(c4ccccc4Cl)CC3)c2)cc(OC)c1OC.[Cl-]`, for which the inhibition result with Platelet [1], with Platelet [2], in the assay with Platelet [3], in the assay with Platelet [4], in the assay with Platelet [27] and with Platelet [28] was “Active” throughout. In addition, the inhibition entry in the assay on Platelet [14], in the assay with Platelet [15], in the assay with Platelet [29], with Platelet [17], in the assay on Platelet [18] and with Platelet [30] was “Active” in each case. In addition, the inhibition result with Platelet [32] is “Active”. Besides, the figures for the Activity in assay [13] and in assay [31] were 20% and 79%, respectively.

On to `Cl.O=C(C1CCCN(Cc2ccccc2F)C1)N1CCN(c2ccccc2Cl)CC1` (stereo not given), for which the Activity in assay [33] is recorded as 38%; in assay [34], 74%; in assay [12] it was 50%; in [13], 73%; in assay [37], 18%; in [38] it was 50%. Besides, the Activity in assay [39] was determined as 59%. In addition, the inhibition result in the assay on Platelet [1], with Platelet [2], with Platelet [3], with Platelet [4], with Platelet [35] and with Platelet [27] was “Active” in each case. In addition, the inhibition entry with Platelet [14], with Platelet [15], in the assay with Platelet [36], in the assay on Platelet [29], in the assay on Platelet [17] and in the assay on Platelet [18] was “Active” in each case. Moreover, the inhibition entry in the assay with Platelet [32] is “Active”.

Values taken from ChEMBL document CHEMBL3046822, “Synthesis, antiplatelet aggregation activity, and molecular modeling study of novel substituted-piperazine analogues” (2011).
